Marks after values point to notes of the source that are not given here.
Key:
[1] = system: serum-treated zymozan air pouch inflammation; test: Rat air pouch assay; format: in vivo; settings: for Cells in lavage fluid (×10^−7): intrapouch, mean ± SD; for Cells in lavage fluid (×10^−7) / PMN in tissue sections (per 100 squares): 4 h after STZ; for PMN in tissue sections (per 100 squares): pouch wall
Protocol: Air pouches were raised on the dorsum of female Dark Agouti rats, approximately seven weeks of age. To promote the formation of a cellular membrane lining the inside of each pouch, the pouches were maintained by re-inflating on days 2 and 5 after the initial injection of air. On re-inflation, the pouch was first deflated to ensure the needle was positioned correctly, before being re-inflated with 2 mL of sterile air. Using this protocol, the pouches remained inflated until use on day 7, when they were injected with 0.5 ml of either test compound or vehicle control. After 15 min, air pouches were injected with serum-treated zymozan (STZ—500 μg). Lavage of the air pouch (4×2 ml lavages) was performed at 4 h and leucocytes counted, after which the rats were killed, the air pouch excised and processed in formalin for histology. The sections were blinded to the person counting. Using a graticule with 100 squares and the 40× objective, the number of polymorphs (PMN) was counted in the pouch lining at 10 different and non-adjacent sites. Group sizes were 5-6 rats. Data were analysed for statistical significance within each experiment and using an unpaired t test. Compounds (1) and (3) were examined in this assay.

[2] = system: PMA-induced ear swelling; test: Murine ear inflammation assay, PMA; format: in vivo, mouse; settings: 25 mg/kg i/p; for Change in ear thickness (mean ± SD, ×0.01 mm): 5 hr after PMA
Protocol: Groups of 5-6 female BALB/c mice (ARC, WA, Australia), weighing 15-21 g were injected intraperitoneally (i/p) with selected compounds of the formula (I) at 25 mg/kg delivered in polyethylene glycol (PEG) 400: phosphate buffered saline (PBS) 1:1 or ethanol: propanediol:PBS 4:9:7 either 30 min prior to or immediately before the inflammogen was applied to the ears. Mice were anaesthetised using isoflurane and baseline thickness of both ears was measured using a spring micrometer. Each mouse received a total of […] of either AA in ethanol (50 mg/ml or 200 mg/ml) or PMA in either ethanol or acetone (0.2 mg/ml) applied to the inner and outer surfaces of each pinna (i.e. 0.5 mg or 2 mg AA or 2 μg PMA per ear). Mice were anaesthetised again to re-measure the ears at 1 hr post-AA application and 5 hr after PMA. The difference in ear swelling pre- and post-application of inflammogen for each ear was calculated, and the average for the two ears of each mouse taken. The difference in mean swelling of each test group compared to the group given vehicle alone was calculated using a general ANOVA using Dunnett's Multiple Comparison test when multiple compounds were tested in the one experiment or a two-tailed unpaired t-test when only one compound was tested (Prism 4, Graphpad Software).

[3] = Free radical scavenging (DPPH); format: biochemical; settings: DPPH 0.1 mM, 20 minutes, 517 nm; read-out: Free radical scavenging ability EC50
Protocol: The antioxidant (free radical trapping) activity of test compounds was assessed using the stable free radical compound 2,2-diphenyl-1-picrylhydrazyl (DPPH). A stock solution of DPPH was prepared at a concentration of 0.1 mM in ethanol and mixed for 10 minutes prior to use. Compound (1) was reacted with DPPH for 20 minutes, after which time the absorbance at 517 nm was determined. The change in absorbance at 517 nm was compared to a reagent blank (DPPH with ethanol alone). The IC50 value was estimated as the concentration of the test compound that caused a 0.6 change in absorbance (with 1.2 absorbance units representing total scavenging of the DPPH radical).

[4] = system: HUVECs; test: Microscopic appearance of HUVECs; format: cell-based, human
Protocol: An effect on cell growth was observed microscopically at 100 μM but not at the lower doses. Normal HUVECs were predominantly epithelioid but included some spindle shaped cells. Cells were mainly healthy and viable, as indicated by their translucent appearance and adherence to the culture dish. Floating cells were presumed non-viable.

[5] = system: TNFα; test: TNFα synthesis in RAW 264.7 (ELISA); format: cell-based, mouse; settings: LPS 50 ng/ml, 16 hrs
Protocol: The mouse macrophage cell line RAW 264.7 was cultured in DMEM supplemented with foetal calf serum (FCS), 2 mM glutamine and 50 U/ml penicillin/streptomycin. Cells were treated with either test compounds (in 0.025% DMSO) or vehicle alone, and added one hour before 50 ng/ml LPS. After incubation for 16 hrs, culture media was collected for PGE2 or TXB2 measurement by ELISA (Cayman Chemical), and TNFα measurement using an ELISA (Becton Dickinson).

[6] = system: neonatal fibroblast foreskin (NFF); test: Toxicity in normal cells (MTT), NFF; format: cell-based; settings: Homo sapiens, 120 h, 5 days, top concentration 150 μM, read-out: Normal cell viability IC50
Protocol: (§1) Human neonatal fibroblast foreskin (NFF—a gift from Dr. Peter Parsons, Queensland Institute of Medical Research) or rabbit kidney (RK-13—a gift from Prof. Miller Whalley, Macquarie University) cells were seeded into 96 well plates and cultured in RPMI supplemented with 10% FCS (CSL, Australia), penicillin (100 U/ml), streptomycin ([…]), L-glutamine (2 mM) and sodium bicarbonate (1.2 g/L) at 37° C. and 5% CO2 for 24 hours until cells had attached and entered log phase of growth. Test compounds were added in serial two-fold dilutions from 150 μM in triplicate and incubated for a further 5 days. MTT was then added to each well, incubated for 3 hours at 37° C., after which the medium was tipped off. Following the addition of DMSO, the absorbance for each well was read on a plate reader. The assays were repeated at least twice.

[7] = system: rabbit kidney (RK-13); test: Toxicity in normal cells (MTT), RK-13; format: cell-based; settings: Oryctolagus cuniculus, RK-13, 120 h, 5 days, top concentration 150 μM, read-out: Normal cell viability IC50
Protocol: as §1

[8] = treated rats compared with controls

SMILES	Cells in lavage fluid (×10^−7) [1]	PMN in tissue sections (per 100 squares) [1]	Number of extravasated PMN in the pouch wall, fold less than controls [1, 8]	Number of exudate cells in the pouch cavity, fold less than controls [1, 8]	% Change compared with vehicle [2]	Change in ear thickness (mean ± SD, ×0.01 mm) [2]	EC50 [3]	Microscopic appearance of treated cells [4]	TNFα ([5]; 1 μM)	TNFα ([5]; 10 μM)	IC50 [6]	IC50 [7]
CN(C)Cc1cc2c(cc1O)OCC(c1ccc(O)cc1)=C2 [Compound (1)]	0.43 ± 0.21^b ×10^−7	13.03 ± 7.10 per 100 squares	more than 3 fold	more than 3 fold	−12.3%	28.9 ± 3.071 ×0.01 mm	18.8 µM	appeared healthy	40002.31 ± 694.8 pg/mL	41958.94 ± 837.04 pg/mL	64.1 ± 9.6 µM	> 150 µM
O=C(O)C1CCCN1Cc1cc2c(cc1O)OCC(c1ccc(O)cc1)=C2 (stereo not shown) [Compound (3)]	1.73 ± 0.84 ×10^−7	35.85 ± 12.89 per 100 squares			0%	37.9 ± 2.6 ×0.01 mm	13.6 µM	appeared healthy	26677.52 ± 815.64 pg/mL	45429.44 ± 1630.68 pg/mL	111 ± 67.1 µM	> 150 µM

From patent publication US20120003270A1, “6-SUBSTITUTED ISOFLAVONOID COMPOUNDS AND USES THEREOF” (priority 2008, published 2012)
